Laboratory results reported in ChEMBL document CHEMBL3045835, “Comparative study of conventional and microwave-assisted synthesis of some Schiff bases and their potential as antimicrobial agents” (2012).
Converted amounts (≈) assume the structure as drawn.

How the values were obtained:
Format in all cases: functional
[1] = system: Bacillus pumilus; assay: Antibacterial activity against Bacillus pumilus MTCC 1456 at 1000 ug/ml after 18 hr by cup-plate method; settings: MTCC 1456, 18 h, read-out: DIZ
[2] = system: Bacillus subtilis; assay: Antibacterial activity against Bacillus subtilis MTCC 441 at 1000 ug/ml after 18 hr by cup plate method; settings: MTCC 441, 18 h, read-out: DIZ
[3] = system: Staphylococcus aureus; assay: Antibacterial activity against Staphylococcus aureus MTCC 1430 after 24 hr by broth dilution method; settings: MTCC 1430, 24 h
[4] = system: Penicillium chrysogenum; assay: Antifungal activity against Penicillium chrysogenum MTCC 161 at 100 ug/ml after 18 hr by cup-plate method; settings: MTCC 161, 18 h, read-out: DIZ
[5] = system: Staphylococcus aureus; assay: Antibacterial activity against Staphylococcus aureus MTCC 1430 at 100 ug/ml after 18 hr by cup-plate method; settings: MTCC 1430, 18 h, read-out: DIZ
[6] = system: Pseudomonas fluorescens; assay: Antibacterial activity against Pseudomonas fluorescens MTCC 2421 at 1500 ug/ml after 18 hr by cup-plate method; settings: MTCC 2421, 18 h, read-out: DIZ
[7] = system: Bacillus pumilus; assay: Antibacterial activity against Bacillus pumilus MTCC 1456 at 500 ug/ml after 18 hr by cup-plate method; settings: MTCC 1456, 18 h, read-out: DIZ
[8] = system: Pseudomonas aeruginosa; assay: Antibacterial activity against Pseudomonas aeruginosa MTCC 424 after 24 hr by broth dilution method; settings: MTCC 424, 24 h
[9] = system: Pseudomonas aeruginosa; assay: Antibacterial activity against Pseudomonas aeruginosa MTCC 424 at 200 ug/ml after 18 hr by cup-plate method; settings: MTCC 424, 18 h, read-out: DIZ
[10] = system: Staphylococcus aureus; assay: Antibacterial activity against Staphylococcus aureus MTCC 1430 at 1000 ug/ml after 18 hr by cup-plate method; settings: MTCC 1430, 18 h, read-out: DIZ
[11] = system: Penicillium chrysogenum; assay: Antifungal activity against Penicillium chrysogenum MTCC 161 at 1000 ug/ml after 18 hr by cup-plate method; settings: MTCC 161, 18 h, read-out: DIZ
[12] = system: Pseudomonas fluorescens; assay: Antibacterial activity against Pseudomonas fluorescens MTCC 2421 at 500 ug/ml after 18 hr by cup-plate method; settings: MTCC 2421, 18 h, read-out: DIZ
[13] = system: Staphylococcus aureus; assay: Antibacterial activity against Staphylococcus aureus MTCC 1430 at 200 ug/ml after 18 hr by cup-plate method; settings: MTCC 1430, 18 h, read-out: DIZ
[14] = system: Aspergillus niger; assay: Antifungal activity against Aspergillus niger MTCC 2546 at 1000 ug/ml after 18 hr by cup-plate method; settings: MTCC 2546, 18 h, read-out: DIZ
[15] = system: Penicillium chrysogenum; assay: Antifungal activity against Penicillium chrysogenum MTCC 161 at 200 ug/ml after 18 hr by cup-plate method; settings: MTCC 161, 18 h, read-out: DIZ
[16] = system: Bacillus pumilus; assay: Antibacterial activity against Bacillus pumilus MTCC 1456 after 24 hr by broth dilution method; settings: MTCC 1456, 24 h
[17] = system: Penicillium chrysogenum; assay: Antifungal activity against Penicillium chrysogenum MTCC 161 at 500 ug/ml after 18 hr by cup-plate method; settings: MTCC 161, 18 h, read-out: DIZ
[18] = system: Bacillus pumilus; assay: Antibacterial activity against Bacillus pumilus MTCC 1456 at 100 ug/ml after 18 hr by cup-plate method; settings: MTCC 1456, 18 h, read-out: DIZ
[19] = system: Pseudomonas aeruginosa; assay: Antibacterial activity against Pseudomonas aeruginosa MTCC 424 at 1500 ug/ml after 18 hr by cup-plate method; settings: MTCC 424, 18 h, read-out: DIZ
[20] = system: Micrococcus luteus; assay: Antibacterial activity against Micrococcus luteus MTCC 1538 at 500 ug/ml after 18 hr by cup-plate method; settings: MTCC 1538, 18 h, read-out: DIZ
[21] = system: Aspergillus niger; assay: Antifungal activity against Aspergillus niger MTCC 2546 at 500 ug/ml after 18 hr by cup-plate method; settings: MTCC 2546, 18 h, read-out: DIZ
[22] = system: Pseudomonas fluorescens; assay: Antibacterial activity against Pseudomonas fluorescens MTCC 2421 at 200 ug/ml after 18 hr by cup-plate method; settings: MTCC 2421, 18 h, read-out: DIZ
[23] = system: Pseudomonas fluorescens; assay: Antibacterial activity against Pseudomonas fluorescens MTCC 2421 after 24 hr by broth dilution method; settings: MTCC 2421, 24 h
[24] = system: Escherichia coli; assay: Antibacterial activity against Escherichia coli MTCC 1573 at 1000 ug/ml after 18 hr by cup-plate method; settings: MTCC 1573, 18 h, read-out: DIZ
[25] = system: Bacillus subtilis; assay: Antibacterial activity against Bacillus subtilis MTCC 441 at 100 ug/ml after 18 hr by cup plate method; settings: MTCC 441, 18 h, read-out: DIZ
[26] = system: Micrococcus luteus; assay: Antibacterial activity against Micrococcus luteus MTCC 1538 at 1500 ug/ml after 18 hr by cup-plate method; settings: MTCC 1538, 18 h, read-out: DIZ
[27] = system: Bacillus pumilus; assay: Antibacterial activity against Bacillus pumilus MTCC 1456 at 1500 ug/ml after 18 hr by cup-plate method; settings: MTCC 1456, 18 h, read-out: DIZ
[28] = system: Bacillus subtilis; assay: Antibacterial activity against Bacillus subtilis MTCC 441 at 200 ug/ml after 18 hr by cup plate method; settings: MTCC 441, 18 h, read-out: DIZ
[29] = system: Aspergillus niger; assay: Antifungal activity against Aspergillus niger MTCC 2546 after 24 hr by broth dilution method; settings: MTCC 2546, 24 h
[30] = system: Escherichia coli; assay: Antibacterial activity against Escherichia coli MTCC 1573 after 24 hr by broth dilution method; settings: MTCC 1573, 24 h
[31] = system: Pseudomonas aeruginosa; assay: Antibacterial activity against Pseudomonas aeruginosa MTCC 424 at 1000 ug/ml after 18 hr by cup-plate method; settings: MTCC 424, 18 h, read-out: DIZ
[32] = system: Bacillus subtilis; assay: Antibacterial activity against Bacillus subtilis MTCC 441 after 24 hr by broth dilution method; settings: MTCC 441, 24 h
[33] = system: Pseudomonas fluorescens; assay: Antibacterial activity against Pseudomonas fluorescens MTCC 2421 at 1000 ug/ml after 18 hr by cup-plate method; settings: MTCC 2421, 18 h, read-out: DIZ
[34] = system: Pseudomonas aeruginosa; assay: Antibacterial activity against Pseudomonas aeruginosa MTCC 424 at 100 ug/ml after 18 hr by cup-plate method; settings: MTCC 424, 18 h, read-out: DIZ
[35] = system: Escherichia coli; assay: Antibacterial activity against Escherichia coli MTCC 1573 at 200 ug/ml after 18 hr by cup-plate method; settings: MTCC 1573, 18 h, read-out: DIZ
[36] = system: Bacillus subtilis; assay: Antibacterial activity against Bacillus subtilis MTCC 441 at 500 ug/ml after 18 hr by cup plate method; settings: MTCC 441, 18 h, read-out: DIZ
[37] = system: Micrococcus luteus; assay: Antibacterial activity against Micrococcus luteus MTCC 1538 at 100 ug/ml after 18 hr by cup-plate method; settings: MTCC 1538, 18 h, read-out: DIZ
[38] = system: Micrococcus luteus; assay: Antibacterial activity against Micrococcus luteus MTCC 1538 at 1000 ug/ml after 18 hr by cup-plate method; settings: MTCC 1538, 18 h, read-out: DIZ
[39] = system: Escherichia coli; assay: Antibacterial activity against Escherichia coli MTCC 1573 at 1500 ug/ml after 18 hr by cup-plate method; settings: MTCC 1573, 18 h, read-out: DIZ
[40] = system: Aspergillus niger; assay: Antifungal activity against Aspergillus niger MTCC 2546 at 100 ug/ml after 18 hr by cup-plate method; settings: MTCC 2546, 18 h, read-out: DIZ
[41] = system: Penicillium chrysogenum; assay: Antifungal activity against Penicillium chrysogenum MTCC 161 after 24 hr by broth dilution method; settings: MTCC 161, 24 h
[42] = system: Penicillium chrysogenum; assay: Antifungal activity against Penicillium chrysogenum MTCC 161 at 1500 ug/ml after 18 hr by cup-plate method; settings: MTCC 161, 18 h, read-out: DIZ
[43] = system: Micrococcus luteus; assay: Antibacterial activity against Micrococcus luteus MTCC 1538 at 200 ug/ml after 18 hr by cup-plate method; settings: MTCC 1538, 18 h, read-out: DIZ
[44] = system: Staphylococcus aureus; assay: Antibacterial activity against Staphylococcus aureus MTCC 1430 at 1500 ug/ml after 18 hr by cup-plate method; settings: MTCC 1430, 18 h, read-out: DIZ
[45] = system: Pseudomonas aeruginosa; assay: Antibacterial activity against Pseudomonas aeruginosa MTCC 424 at 500 ug/ml after 18 hr by cup-plate method; settings: MTCC 424, 18 h, read-out: DIZ
[46] = system: Staphylococcus aureus; assay: Antibacterial activity against Staphylococcus aureus MTCC 1430 at 500 ug/ml after 18 hr by cup-plate method; settings: MTCC 1430, 18 h, read-out: DIZ
[47] = system: Bacillus subtilis; assay: Antibacterial activity against Bacillus subtilis MTCC 441 at 1500 ug/ml after 18 hr by cup plate method; settings: MTCC 441, 18 h, read-out: DIZ
[48] = system: Pseudomonas fluorescens; assay: Antibacterial activity against Pseudomonas fluorescens MTCC 2421 at 100 ug/ml after 18 hr by cup-plate method; settings: MTCC 2421, 18 h, read-out: DIZ
[49] = system: Bacillus pumilus; assay: Antibacterial activity against Bacillus pumilus MTCC 1456 at 200 ug/ml after 18 hr by cup-plate method; settings: MTCC 1456, 18 h, read-out: DIZ
[50] = system: Aspergillus niger; assay: Antifungal activity against Aspergillus niger MTCC 2546 at 1500 ug/ml after 18 hr by cup-plate method; settings: MTCC 2546, 18 h, read-out: DIZ
[51] = system: Aspergillus niger; assay: Antifungal activity against Aspergillus niger MTCC 2546 at 200 ug/ml after 18 hr by cup-plate method; settings: MTCC 2546, 18 h, read-out: DIZ
[52] = system: Escherichia coli; assay: Antibacterial activity against Escherichia coli MTCC 1573 at 500 ug/ml after 18 hr by cup-plate method; settings: MTCC 1573, 18 h, read-out: DIZ
[53] = system: Escherichia coli; assay: Antibacterial activity against Escherichia coli MTCC 1573 at 100 ug/ml after 18 hr by cup-plate method; settings: MTCC 1573, 18 h, read-out: DIZ
[54] = system: Micrococcus luteus; assay: Antibacterial activity against Micrococcus luteus MTCC 1538 after 24 hr by broth dilution method; settings: MTCC 1538, 24 h

MIC [3]: 300 µg/mL (≈ 1060 µM)
MIC [8]: 200 µg/mL (≈ 705 µM)
MIC [16]: 200 µg/mL (≈ 705 µM)
MIC [23]: 300 µg/mL (≈ 1060 µM)
MIC [29]: 200 µg/mL (≈ 705 µM)
MIC [30]: 400 µg/mL (≈ 1410 µM)
MIC [32]: 300 µg/mL (≈ 1060 µM)
MIC [41]: 200 µg/mL (≈ 705 µM)
MIC [54]: 200 µg/mL (≈ 705 µM)
Structure (SMILES): O=c1c(/C=N/c2ccc(Cl)cc2)coc2ccccc12
zone of inhibition at 1000 µg/mL [1]: 18 mm
zone of inhibition at 1000 µg/mL [2]: 19 mm
zone of inhibition at 100 µg/mL [4]: 15 mm
zone of inhibition at 100 µg/mL [5]: 12 mm
zone of inhibition at 1500 µg/mL [6]: 18 mm
zone of inhibition at 500 µg/mL [7]: 17 mm
zone of inhibition at 200 µg/mL [9]: 18 mm
zone of inhibition at 1000 µg/mL [10]: 18 mm
zone of inhibition at 1000 µg/mL [11]: 20 mm
zone of inhibition at 500 µg/mL [12]: 14 mm
zone of inhibition at 200 µg/mL [13]: 14 mm
zone of inhibition at 1000 µg/mL [14]: 20 mm
zone of inhibition at 200 µg/mL [15]: 17 mm
zone of inhibition at 500 µg/mL [17]: 19 mm
zone of inhibition at 100 µg/mL [18]: 12 mm
zone of inhibition at 1500 µg/mL [19]: 21 mm
zone of inhibition at 500 µg/mL [20]: 21 mm
zone of inhibition at 500 µg/mL [21]: 19 mm
zone of inhibition at 200 µg/mL [22]: 12 mm
zone of inhibition at 1000 µg/mL [24]: 19 mm
zone of inhibition at 100 µg/mL [25]: 13 mm
zone of inhibition at 1500 µg/mL [26]: 24 mm
zone of inhibition at 1500 µg/mL [27]: 19 mm
zone of inhibition at 200 µg/mL [28]: 15 mm
zone of inhibition at 1000 µg/mL [31]: 20 mm
zone of inhibition at 1000 µg/mL [33]: 16 mm
zone of inhibition at 100 µg/mL [34]: 16 mm
zone of inhibition at 200 µg/mL [35]: 16 mm
zone of inhibition at 500 µg/mL [36]: 17 mm
zone of inhibition at 100 µg/mL [37]: 16 mm
zone of inhibition at 1000 µg/mL [38]: 23 mm
zone of inhibition at 1500 µg/mL [39]: 20 mm
zone of inhibition at 100 µg/mL [40]: 16 mm
zone of inhibition at 1500 µg/mL [42]: 21 mm
zone of inhibition at 200 µg/mL [43]: 19 mm
zone of inhibition at 1500 µg/mL [44]: 21 mm
zone of inhibition at 500 µg/mL [45]: 19 mm
zone of inhibition at 500 µg/mL [46]: 16 mm
zone of inhibition at 1500 µg/mL [47]: 21 mm
zone of inhibition at 100 µg/mL [48]: 11 mm
zone of inhibition at 200 µg/mL [49]: 15 mm
zone of inhibition at 1500 µg/mL [50]: 21 mm
zone of inhibition at 200 µg/mL [51]: 18 mm
zone of inhibition at 500 µg/mL [52]: 17 mm
zone of inhibition at 100 µg/mL [53]: 13 mm
